Measurements as given in BigSolDB 2.1.

CC(CCC(=O)O)(c1ccc(O)cc1)c1ccc(O)cc1
Settings	solubility (mole fraction)
in acetone, 288.15 K	0.125
in acetone, 291.15 K	0.127
in acetone, 294.15 K	0.13
in acetone, 297.15 K	0.134
in acetone, 300.15 K	0.137
in acetone, 303.15 K	0.14
in acetone, 306.15 K	0.143
in acetone, 309.15 K	0.146
in acetone, 312.15 K	0.15
in acetone, 315.15 K	0.153
in acetone, 318.15 K	0.157
in acetonitrile, 288.15 K	0.00804
in acetonitrile, 291.15 K	0.00871
in acetonitrile, 294.15 K	0.00973
in acetonitrile, 297.15 K	0.0106
in acetonitrile, 300.15 K	0.0116
in acetonitrile, 303.15 K	0.013
in acetonitrile, 306.15 K	0.0144
in acetonitrile, 309.15 K	0.0162
in acetonitrile, 312.15 K	0.0181
in acetonitrile, 315.15 K	0.0208
in acetonitrile, 318.15 K	0.0238
in ethanol, 288.15 K	0.0989
in ethanol, 291.15 K	0.103
in ethanol, 294.15 K	0.107
in ethanol, 297.15 K	0.11
in ethanol, 300.15 K	0.114
in ethanol, 303.15 K	0.118
in ethanol, 306.15 K	0.123
in ethanol, 309.15 K	0.129
in ethanol, 312.15 K	0.136
in ethanol, 315.15 K	0.142
in ethanol, 318.15 K	0.148
in ethyl acetate, 288.15 K	0.0498
in ethyl acetate, 291.15 K	0.0509
in ethyl acetate, 294.15 K	0.052
in ethyl acetate, 297.15 K	0.0533
in ethyl acetate, 300.15 K	0.0553
in ethyl acetate, 303.15 K	0.0576
in ethyl acetate, 306.15 K	0.0604
in ethyl acetate, 309.15 K	0.0637
in ethyl acetate, 312.15 K	0.0667
in ethyl acetate, 315.15 K	0.0696
in ethyl acetate, 318.15 K	0.0727
in ethyl formate, 288.15 K	0.0113
in ethyl formate, 291.15 K	0.0116
in ethyl formate, 294.15 K	0.012
in ethyl formate, 297.15 K	0.0127
in ethyl formate, 300.15 K	0.0136
in ethyl formate, 303.15 K	0.0146
in ethyl formate, 306.15 K	0.0155
in ethyl formate, 309.15 K	0.0166
in ethyl formate, 312.15 K	0.0183
in ethyl formate, 315.15 K	0.0202
in ethyl formate, 318.15 K	0.0221
in isopropanol, 288.15 K	0.063
in isopropanol, 291.15 K	0.0631
in isopropanol, 294.15 K	0.0634
in isopropanol, 297.15 K	0.0637
in isopropanol, 300.15 K	0.0651
in isopropanol, 303.15 K	0.0665
in isopropanol, 306.15 K	0.0687
in isopropanol, 309.15 K	0.0718
in isopropanol, 312.15 K	0.077
in isopropanol, 315.15 K	0.0829
in isopropanol, 318.15 K	0.0914
in methanol, 288.15 K	0.096
in methanol, 291.15 K	0.0983
in methanol, 294.15 K	0.101
in methanol, 297.15 K	0.104
in methanol, 300.15 K	0.106
in methanol, 303.15 K	0.11
in methanol, 306.15 K	0.114
in methanol, 309.15 K	0.119
in methanol, 312.15 K	0.123
in methanol, 315.15 K	0.127
in methanol, 318.15 K	0.131
in methyl acetate, 288.15 K	0.0453
in methyl acetate, 291.15 K	0.0477
in methyl acetate, 294.15 K	0.0497
in methyl acetate, 297.15 K	0.0526
in methyl acetate, 300.15 K	0.0559
in methyl acetate, 303.15 K	0.0594
in methyl acetate, 306.15 K	0.063
in methyl acetate, 309.15 K	0.0668
in methyl acetate, 312.15 K	0.0713
in methyl acetate, 315.15 K	0.0775
in methyl acetate, 318.15 K	0.085
in n-butanol, 288.15 K	0.0712
in n-butanol, 291.15 K	0.0763
in n-butanol, 294.15 K	0.0814
in n-butanol, 297.15 K	0.0867
in n-butanol, 300.15 K	0.0919
in n-butanol, 303.15 K	0.0971
in n-butanol, 306.15 K	0.102
in n-butanol, 309.15 K	0.107
in n-butanol, 312.15 K	0.112
in n-butanol, 315.15 K	0.116
in n-butanol, 318.15 K	0.12
in n-butyl acetate, 288.15 K	0.0117
in n-butyl acetate, 291.15 K	0.0143
in n-butyl acetate, 294.15 K	0.0169
in n-butyl acetate, 297.15 K	0.0199
in n-butyl acetate, 300.15 K	0.0227
in n-butyl acetate, 303.15 K	0.0258
in n-butyl acetate, 306.15 K	0.029
in n-butyl acetate, 309.15 K	0.0325
in n-butyl acetate, 312.15 K	0.0356
in n-butyl acetate, 315.15 K	0.039
in n-butyl acetate, 318.15 K	0.0428
in n-propanol, 288.15 K	0.0352
in n-propanol, 291.15 K	0.0384
in n-propanol, 294.15 K	0.0416
in n-propanol, 297.15 K	0.046
in n-propanol, 300.15 K	0.0502
in n-propanol, 303.15 K	0.0541
in n-propanol, 306.15 K	0.0588
in n-propanol, 309.15 K	0.0631
in n-propanol, 312.15 K	0.0671
in n-propanol, 315.15 K	0.0732
in n-propanol, 318.15 K	0.0803
in n-propyl acetate, 288.15 K	0.0291
in n-propyl acetate, 291.15 K	0.0298
in n-propyl acetate, 294.15 K	0.0309
in n-propyl acetate, 297.15 K	0.032
in n-propyl acetate, 300.15 K	0.0336
in n-propyl acetate, 303.15 K	0.0358
in n-propyl acetate, 306.15 K	0.0379
in n-propyl acetate, 309.15 K	0.0403
in n-propyl acetate, 312.15 K	0.0433
in n-propyl acetate, 315.15 K	0.0472
in n-propyl acetate, 318.15 K	0.0507
in sec-butanol, 288.15 K	0.0823
in sec-butanol, 291.15 K	0.0876
in sec-butanol, 294.15 K	0.0926
in sec-butanol, 297.15 K	0.0978
in sec-butanol, 300.15 K	0.103
in sec-butanol, 303.15 K	0.11
in sec-butanol, 306.15 K	0.117
in sec-butanol, 309.15 K	0.124
in sec-butanol, 312.15 K	0.129
in sec-butanol, 315.15 K	0.135
in sec-butanol, 318.15 K	0.14
